Values quoted from earlier work in article PMC8760190 (Molecular Imaging and Biology, 2021).

Conditions: 90 min after injection, rats and mice

Structure (SMILES)	Non-metabolized parent compound as share of remaining radioactivity in the brain
CCN(CC)C(=O)Cc1c(-c2ccc(OCC[18F])cc2)nn2c(C)cc(C)nc12 [[^18F]DPA-714]	about 50%
CCN(CC)C(=O)Cc1c(-c2ccc([18F])cc2)nn2c(C)cc(C)nc12 [[^18F]F-DPA]	more than 90%
